Reference: patent US7572831B2, “Composition containing chalcone” (Angiolab, Inc., priority 2002, dated 2009)

Legend:
MMP-9 = target: T1, MMP-9 (Homo sapiens, UniProt P14780); test: MMP-9 spectrofluorometric enzyme activity assay; type: biochemical; conditions: 50 μM compound; read-out: MMP-9 activity inhibited
T1 construct: made in house; host or cells: Sf21 insect cells, baculovirus (pBlueBac4.5)
Protocol: MMP-1, MMP-2, MMP-9 and MMP-13 were cloned and prepared from insect cells (Sf21 insect cell) by using a Baculovirus system.
Each cDNA for corresponding MMPs was cloned to a pBlueBac4.5 transfer vector (Invitrogen, Cat no. V1995-20), and then transfected to Sf21 cells with a Bac-N-Blue Transfection Kit (Invitrogen, Cat no. K855-01). Sf21 cells were incubated with a TNM-FH (Sigma, St. Louis, Mo., U.S.A) media containing 10% fetal bovine serum at 27° C., then harvested and re-suspended at a concentration of 10^7 cell/Ml. The cell suspension was incubated with a virus containing the cloned gene for 1 hr at room temperature. Infected Sf21 cells were grown for 72 hrs and the medium was recovered, and the MMP was purified. MMP-2 (GENEBANK No. XM—048244) and MMP-9 (GENEBANK No. XM—009491) were recovered from a gelatin-sepharose affinity column (Sigma, G5384) by eluting with 5% DMSO-containing buffer. […]
As a control, 2 Ml of reaction buffer (50 mM Tricine, pH 7.5, 10 mM CaCl2, 200 mM NaCl) comprising DMSO, 10 nM of enzyme and 10 μM of substrate was prepared in a cuvette. Fluorescence intensity was measured for 5-10 min at room temperature with a spectrofluorometer.
50 μM Chalcone or its derivatives were added to a reaction buffer containing a substrate and enzyme, and fluorescence intensity was measured in the same manner.

TPA-induced ear edema = TPA-induced ear edema model; type: in vivo, ICR mouse
Protocol: To observe the anti-inflammatory effects of chalcone or its derivatives edema was induced in the ear by topical application of 10 ul of TPA (Tetradecanoylphorbol acetate) in acetone (2.5 ug/ear) to both the inner and outer surface of one ear of each 6-week-old ICR mouse. 5% of Chalcone or its derivatives diluted with acetone were applied separately to each ear topically immediately after TPA. The reference drug, indomethacin (0.5 mg/ear), was administered as a positive control. Ear thickness was measured before and 4 hours after treatment with the irritant using a micrometer (Mitutoyo Co.). Ear thickness was expressed as the mean of the difference between thickness before and after challenge. Inhibition ratio percentage of edema was expressed as the reduction in thickness with respect to the control treated only with TPA. As shown in FIG. 6 and Table 2, chalcone or its derivatives suppressed the TPA-induced ear edema.

[1] = tested on: UVB-induced wrinkle formation; test: Skin photoaging, UVB-induced wrinkle formation; type: in vivo, albino hairless HOS:HR1 mice; conditions: topical, 15 week
From the text: Effects of chalcone on skin photoaging were studied using mouse skin wrinkle induced by UV irradiation. 6-week male albino hairless HOS:HR1 mice were used for wrinkle formation induced by long-term repeated UVB irradiation. Wrinkles were formed according to the modified method described by Bissett et al (Photochem Photobiol 46: 367-378, 1987) The dose was set at 60 mJ per cm^2 for 4 weeks and increased to 120 mJ per cm^2 for 11 weeks. The frequency of irradiation was set at three times per week. In this protocol, wrinkles began to be observed macroscopically in the dorsal region from about 8 week after initiation of irradiation, and deep wrinkles were formed at 12 week. 30 hairless mice were divided into three groups, and only one of ethanol-propylene glycol (7:3) (control), 1% chalcone in ethanol-propylene glycol (7:3), or 5% chalcone in ethanol-propylene glycol (7:3) was applied on each groups for 15 weeks. 100 μl of the experimental agent was applied to the dorsal region three times weekly just after UVB exposure. At 15 week after initiation of repeated UVB irradiation, each hairless mouse was anesthetized, and the degree of wrinkle formation was evaluated according to Table 3. […] [table]

[2] = Skin sensitization by human patch test; type: in vivo; conditions: interpretation of skin average reactivity
Protocol: The effect of chalcone on skin sensitization was studied by general method of skin patch test. The skin patch test was done against human subjects of ten adults. Test patch (2 cm×2 cm) included 0.2 ml of cream containing 0.01%-1.0% chalcone. The patches were applied to the backs of subjects. The patch was removed after 48 hours or 96 hours, and the skin responses of subjects were recorded and evaluated as shown in Table 4. The skin average reactivity calculated by equation 1 was interpreted as the degree of skin sensitivity in Table 5. According to the skin patch test, chalcone was nonreactive to skin sensitization (Table 6).

T1 sequence (P14780 107-707 limits assumed): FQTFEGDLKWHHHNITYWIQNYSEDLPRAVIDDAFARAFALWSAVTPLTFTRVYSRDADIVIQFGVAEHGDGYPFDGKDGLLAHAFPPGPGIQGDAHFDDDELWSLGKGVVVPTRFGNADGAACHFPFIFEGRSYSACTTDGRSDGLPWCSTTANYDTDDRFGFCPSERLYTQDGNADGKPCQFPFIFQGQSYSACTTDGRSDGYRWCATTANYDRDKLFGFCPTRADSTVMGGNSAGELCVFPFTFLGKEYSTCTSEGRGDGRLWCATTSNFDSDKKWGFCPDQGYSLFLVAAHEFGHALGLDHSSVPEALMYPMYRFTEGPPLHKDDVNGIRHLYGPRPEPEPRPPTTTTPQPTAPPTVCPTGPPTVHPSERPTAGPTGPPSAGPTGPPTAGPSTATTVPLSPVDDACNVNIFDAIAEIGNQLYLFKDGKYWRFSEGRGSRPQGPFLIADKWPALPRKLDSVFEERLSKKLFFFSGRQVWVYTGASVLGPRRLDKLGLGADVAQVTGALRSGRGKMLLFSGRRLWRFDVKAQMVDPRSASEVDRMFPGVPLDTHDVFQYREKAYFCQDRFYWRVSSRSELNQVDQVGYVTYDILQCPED

## O=C(/C=C/c1ccccc1)c1ccccc1 [Chalcone]
MMP-9
  inhibition at 50 µM: ~76%
TPA-induced ear edema; topical 5% in acetone (indomethacin 0.5 mg/ear), 4 hours after TPA
  Inhibition ratio (%) of ear edema: 69.3%
TPA-induced ear edema; topical 5% in acetone (indomethacin 0.5 mg/ear), 4 hours after TPA, TPA control 176 ± 35
  Δ Ear thickness (um ± S.D): 54 ± 22 um
TPA-induced ear edema; topical 5%, TPA-induced ear edema
  Relative potency among chalcone or its derivatives on ear edema: greatest potency
[1]; 1% chalcone in ethanol-propylene glycol (7:3)
  UVB-induced wrinkle formation vs vehicle-treated group: significantly inhibited
[1]; 5% chalcone in ethanol-propylene glycol (7:3)
  UVB-induced wrinkle formation vs vehicle-treated group: significantly inhibited
[2]
  Result of skin patch test (degree of skin sensitivity): nonreactive (0.0-0.9)
